Measured values as given in patent US8664257B2, “Oxygen-substituted 3-heteroaroylamino-propionic acid derivatives and their use as pharmaceuticals” (Sanofi, priority 2010, dated 2014).

biological target: T1, Recombinant human cathepsin A (Homo sapiens, UniProt P10619); assay: Cathepsin A inhibitory activity; format: biochemical; conditions: pharmacological test "Cathepsin A inhibitory activity"; IC50 given as class A/B/C; read-out: Activity (2): Cathepsin A inhibitory activity, IC50 class
T1 construct: Recombinant human cathepsin A (residues 29-480, with a C-terminal 10-His tag); 10-His (C); purchased R&D Systems 1049-SE
T1 sequence (P10619 29-312 limits assumed): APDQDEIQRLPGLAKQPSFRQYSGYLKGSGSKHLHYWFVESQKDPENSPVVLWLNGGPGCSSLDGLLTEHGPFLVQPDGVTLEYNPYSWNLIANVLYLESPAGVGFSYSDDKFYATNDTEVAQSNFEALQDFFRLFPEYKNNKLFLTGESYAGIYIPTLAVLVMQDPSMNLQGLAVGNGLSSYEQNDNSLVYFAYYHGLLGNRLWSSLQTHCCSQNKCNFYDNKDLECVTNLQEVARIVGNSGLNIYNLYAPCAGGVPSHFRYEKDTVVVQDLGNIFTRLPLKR
T1 sequence (P10619 327-480 limits assumed): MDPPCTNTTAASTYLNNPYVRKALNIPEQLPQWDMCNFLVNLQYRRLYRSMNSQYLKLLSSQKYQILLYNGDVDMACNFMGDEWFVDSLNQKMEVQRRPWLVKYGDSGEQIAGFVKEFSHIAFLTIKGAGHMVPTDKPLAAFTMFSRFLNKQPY
Description: a) Cathepsin A Inhibitory Activity
Recombinant human cathepsin A (residues 29-480, with a C-terminal 10-His tag; R&D Systems, #1049-SE) was proteolytically activated with recombinant human cathepsin L (R&D Systems, #952-CY). Briefly, cathepsin A was incubated at 10 μg/ml with cathepsin L at 1 μg/ml in activation buffer (25 mM 2-(morpholin-4-yl)-ethanesulfonic acid (MES), pH 6.0, containing 5 mM dithiothreitol (DTT)) for 15 min at 37° C. Cathepsin L activity was then stopped by the addition of the cysteine protease inhibitor E-64 (N-(trans-epoxysuccinyl)-L-leucine-4-guanidinobutylamide; Sigma-Aldrich, #E3132; dissolved in activation buffer/DMSO) to a final concentration of 10 μM.
The activated cathepsin A was diluted in assay buffer (25 mM MES, pH 5.5, containing 5 mM DTT) and mixed with the test compound (dissolved in assay buffer containing (v/v) 3% DMSO) or, in the control experiments, with the vehicle in a multiple assay plate. After incubation for 15 min at room temperature, as substrate then bradykinin carrying an N-terminal®Bodipy FL (4,4-difluoro-5,7-dimethyl-4-bora-3a,4a-diaza-s-indacene-3-propionyl) label (JPT Peptide Technologies GmbH; dissolved in assay buffer) was added to the mixture. The final concentration of cathepsin A was 833 ng/ml and the final concentration of labeled bradykinin 2 μM. After incubation for 15 min at room temperature the reaction was stopped by the addition of stop buffer (130 mM 2-(4-(2-hydroxy-ethyl)-piperazin-1-yl)-ethanesulfonic acid, pH 7.4, containing (v/v) 0.013% Triton X-100, 0.13% Coating Reagent 3 (Caliper Life Sciences), 6.5% DMSO and 20 μM ebelactone B (Sigma, # E0886)).
Uncleaved substrate and product were then separated by a microfluidic capillary electrophoresis on a LabChip® 3000 Drug Discovery System (12-Sipper-Chip; Caliper Life Sciences) and quantified by determination of the respective peak areas. Substrate turnover was calculated by dividing product peak area by the sum of substrate and product peak areas, and the enzyme activity and the inhibitory effect of the test compound thus quantified. From the percentage of inhibition of cathepsin A activity observed with the test compound at several concentrations, the inhibitory concentration IC50, i.e. the concentration which effects 50% inhibition of enzyme activity was, calculated.

Row | IC50 | Compound
1 | 100 to 1000 nM | COc1ccccc1[C@H](CC(=O)O)NC(=O)c1cc(O)n(-c2cccc(Cl)c2)n1 [Example 253]
2 | 1000 to 30000 nM | COc1ccccc1[C@@H](NC(=O)c1cc(O)n(-c2ccccc2Cl)n1)[C@@H](O)C(=O)O [Example 216]
3 | 1000 to 30000 nM | N#Cc1cccc([C@H](CC(=O)O)NC(=O)c2cc(O)n(-c3cccc(Cl)c3)n2)c1 [Example 252]
4 | 100 to 1000 nM | O=C(O)C[C@H](NC(=O)c1cc(O)n(-c2ccccc2Cl)n1)c1cccc(C(F)(F)F)c1 [Example 218]
5 | 100 to 1000 nM | Cc1cc(F)ccc1C(CC(=O)O)NC(=O)c1cc(O)n(-c2ccccc2Cl)n1 (centres unmarked) [Example 142]
6 | 100 to 1000 nM | COc1ccc(C(CC(=O)O)NC(=O)c2cc(O)n(-c3ccccc3F)n2)c(OC)c1 (centres unmarked) [Example 232]
7 | < 100 nM | O=C(O)C[C@H](NC(=O)c1cc(O)n(-c2ccccc2)n1)c1cccc(Cl)c1Cl [Example 164]

same assay, conditions: read-out: Activity (2): Cathepsin A inhibitory activity (IC50 class)

Row | IC50 | Compound
8 | < 100 nM | COc1c(F)c(C(=O)N[C@@H](CC(=O)O)c2ccccc2C)nn1-c1ccccc1F [Example 595]
9 | 100 to 1000 nM | COc1c(Cl)c(C(=O)N[C@@H](CC(=O)O)c2ccccc2C)nn1-c1ccccc1F [Example 593]
10 | 100 to 1000 nM | O=C(O)CC(NC(=O)c1cc(O)n(-c2ccccc2F)n1)c1ccc(-c2ccc(C(F)(F)F)cc2)cc1 (centres unmarked) [Example 576]
11 | < 100 nM | Cc1ccccc1[C@H](CC(=O)O)NC(=O)c1cc(OCc2ccno2)n(-c2ccccc2F)n1 [Example 658]
12 | < 100 nM | CCOc1cc(C(=O)N[C@@H](CC(=O)O)c2ccccc2Cl)nn1-c1ccccc1Cl [Example 737]
13 | < 100 nM | COc1cc(C(=O)N[C@@H](CC(=O)O)c2cccc(Cl)c2Cl)nn1-c1ccccc1 [Example 596]
14 | < 100 nM | CCCCCCOc1cc(C(=O)N[C@@H](CC(=O)O)c2ccccc2C)nn1-c1ccccc1F [Example 660]
15 | < 100 nM | Cc1ccccc1[C@H](CC(=O)O)NC(=O)c1cc(OCC(C)(O)C2CC2)n(-c2ccccc2F)n1 (stereo partly drawn) [Example 757, (S)-3-{[5-(2-Cyclopropyl-2-hydroxy-propoxy)-1-(2-fluoro-phenyl)-1H-pyrazole-3-carbonyl]-amino}-3-o-tolyl-propionic acid]
16 | < 100 nM | Cc1ccccc1[C@H](CC(=O)O)NC(=O)c1cc(OCc2ccccn2)n(-c2ccccc2F)n1 [Example 640]

Further lines, the compound ahead of its results:

Row | Compound | IC50
17 | CC(C)(C)[C@@](C)(O)COc1cc(C(=O)N[C@@H](CC(=O)O)c2ccccc2Cl)nn1-c1ccccc1F [Example 790, (S)-3-(2-Chloro-phenyl)-3-{[1-(2-fluoro-phenyl)-5-((R)-2-hydroxy-2,3,3-trimethyl-butoxy)-1H-pyrazole-3-carbonyl]-amino}-propionic acid] | < 100 nM
18 | CC(C)C(C)(O)COc1cc(C(=O)N[C@@H](CC(=O)O)c2cccc(F)c2)nn1-c1ccccc1F (stereo partly drawn) [Example 782, (S)-3-(3-Fluoro-phenyl)-3-{[1-(2-fluoro-phenyl)-5-(2-hydroxy-2,3-dimethyl-butoxy)-1H-pyrazole-3-carbonyl]-amino}-propionic acid] | < 100 nM
19 | CC(C)[C@@](C)(O)COc1cc(C(=O)N[C@@H](CC(=O)O)c2ccc(F)cc2)nn1-c1ccccc1F [Example 768, (S)-3-(4-Fluoro-phenyl)-3-{[1-(2-fluoro-phenyl)-5-((R)-2-hydroxy-2,3-dimethyl-butoxy)-1H-pyrazole-3-carbonyl]-amino}-propionic acid] | < 100 nM

same assay, conditions: read-out: Activity (2): Cathepsin A inhibitory activity, IC50 class

Row | IC50 | Compound
20 | 100 to 1000 nM | COc1ccc(Cl)cc1C(CC(=O)O)NC(=O)c1cc(O)n(-c2ccccc2)n1 (centres unmarked) [Example 375]
21 | 1000 to 30000 nM | O=C(O)C[C@H](NC(=O)c1cc(O)n(-c2ccc(Cl)cc2)n1)c1ccccc1F [Example 293]
22 | 100 to 1000 nM | O=C(O)C[C@H](NC(=O)c1cc(O)n(-c2ccc(F)cc2)n1)c1cccc(Cl)c1Cl [Example 347]
23 | 100 to 1000 nM | Cc1cccc([C@H](CC(=O)O)NC(=O)c2cc(O)n(-c3ccccc3)n2)c1 [Example 376]
24 | 1000 to 30000 nM | O=C(O)CC(NC(=O)c1cc(O)n(-c2cccc(F)c2)n1)c1ccc(-c2ccc(F)cc2)cc1 (centres unmarked) [Example 333]
25 | 100 to 1000 nM | COc1ccc(C(CC(=O)O)NC(=O)c2cc(O)n(-c3ccc(F)cc3)n2)c(C)c1 (centres unmarked) [Example 337]

More lines, now with the values behind:

Row | Compound | IC50
26 | CC(C)C(CC(=O)O)NC(=O)c1cc(O)n(-c2ccccc2)n1 (centres unmarked) [Example 13] | 1000 to 30000 nM
27 | Cc1ccccc1[C@H](CC(=O)O)NC(=O)c1cc(OC[C@](C)(O)C(C)C)n(-c2ccccc2F)n1 [Example 857, (S)-3-{[1-(2-Fluoro-phenyl)-5-((R)-2-hydroxy-2,3-dimethyl-butoxy)-1H-pyrazole-3-carbonyl]-amino}-3-o-tolyl-propionic acid] | < 100 nM
28 | O=C(O)CC(NC(=O)c1cc(O)n(-c2ccc(F)cc2)n1)c1ccc(F)cc1F (centres unmarked) [Example 86] | 1000 to 30000 nM
29 | Cc1ccc(C)c(-n2nc(C(=O)NC(CC(=O)O)c3ccccc3C)cc2O)c1 (centres unmarked) [Example 40] | 100 to 1000 nM
30 | CC(C)CC(CC(=O)O)NC(=O)c1cc(O)n(-c2ccccc2)n1 (centres unmarked) [Example 19] | 100 to 1000 nM
31 | Cc1ccc(C)c(-n2nc(C(=O)NC(CC(=O)O)c3ccc(Cl)c(Cl)c3)cc2O)c1 (centres unmarked) [Example 48] | 1000 to 30000 nM
32 | CC(C)[C@](C)(O)COc1cc(C(=O)NCC(C(=O)O)c2ccccc2)nn1-c1ccccc1F (stereo partly drawn) [Example 830, 3-{[1-(2-Fluoro-phenyl)-5-((S)-2-hydroxy-2,3-dimethyl-butoxy)-1H-pyrazole-3-carbonyl]-amino}-2-phenyl-propionic acid] | 100 to 1000 nM
33 | CCc1ccc(C(CC(=O)O)NC(=O)c2cc(O)n(-c3cc(C)ccc3C)n2)cc1 (centres unmarked) [Example 41] | 1000 to 30000 nM

same assay, conditions: recombinant human cathepsin A 833 ng/ml, Bodipy FL-labeled bradykinin 2 μM, pH 5.5; read-out: CATH-A IC50

Row | IC50 | Compound
34 | 142 nM | Cc1c(F)cccc1C(CC(=O)O)NC(=O)c1cc(O)n(-c2ccccc2)n1 (centres unmarked) [Example 494, 3-(3-Fluoro-2-methyl-phenyl)-3-[(5-hydroxy-1-phenyl-1H-pyrazole-3-carbonyl)-amino]-propionic acid]
35 | 130 nM | Cc1ccc([C@H](CC(=O)O)NC(=O)c2cc(O)n(-c3ccccc3)n2)cc1 [Example 445, (S)-3-[(5-Hydroxy-1-phenyl-1H-pyrazole-3-carbonyl)-amino]-3-p-tolyl-propionic acid]
36 | 413 nM | O=C(O)C[C@H](NC(=O)c1cc(O)n(-c2ccc(F)cc2)n1)c1ccccc1Cl [Example 528, (S)-3-(2-Chloro-phenyl)-3-{[1-(4-fluoro-phenyl)-5-hydroxy-1H-pyrazole-3-carbonyl]-amino}-propionic acid]
37 | 123 nM | COc1ccc(F)cc1C(CC(=O)O)NC(=O)c1cc(O)n(-c2ccccc2Cl)n1 (centres unmarked) [Example 504, 3-{[1-(2-Chloro-phenyl)-5-hydroxy-1H-pyrazole-3-carbonyl]-amino}-3-(5-fluoro-2-methoxy-phenyl)-propionic acid]

Row | Compound | IC50
38 | CC(C)[C@@](C)(O)COc1cc(C(=O)N[C@@H](CC(=O)O)c2ccc(F)cc2)nn1-c1ccccc1F [Example 768, (S)-3-(4-Fluoro-phenyl)-3-{[1-(2-fluoro-phenyl)-5-((R)-2-hydroxy-2,3-dimethyl-butoxy)-1H-pyrazole-3-carbonyl]-amino}-propionic acid] | 1.15 nM

same assay, conditions: recombinant human cathepsin A; read-out: Activity (2): Cathepsin A inhibitory activity, IC50 class

Row | IC50 | Compound
39 | 100 to 1000 nM | Cc1c(F)cccc1C(CC(=O)O)NC(=O)c1cc(O)n(-c2ccccc2)n1 (centres unmarked) [Example 494, 3-(3-Fluoro-2-methyl-phenyl)-3-[(5-hydroxy-1-phenyl-1H-pyrazole-3-carbonyl)-amino]-propionic acid]
40 | 100 to 1000 nM | Cc1ccc([C@H](CC(=O)O)NC(=O)c2cc(O)n(-c3ccccc3)n2)cc1 [Example 445, (S)-3-[(5-Hydroxy-1-phenyl-1H-pyrazole-3-carbonyl)-amino]-3-p-tolyl-propionic acid]
41 | 100 to 1000 nM | COc1cccc([C@H](CC(=O)O)NC(=O)c2cc(O)n(-c3cccc(F)c3)n2)c1OC [Example 431]
42 | < 100 nM | Cc1cccc(C(CC(=O)O)NC(=O)c2cc(O)n(-c3ccccc3F)n2)c1C (centres unmarked) [Example 405]
43 | 100 to 1000 nM | Cc1cc(F)ccc1C(CC(=O)O)NC(=O)c1cc(O)n(-c2cccc(Cl)c2)n1 (centres unmarked) [Example 420]
44 | 100 to 1000 nM | O=C(O)CC(NC(=O)c1cc(O)n(-c2ccc(F)cc2)n1)c1cccc2c1OC(F)(F)O2 (centres unmarked) [Example 491]
45 | 100 to 1000 nM | O=C(O)C[C@H](NC(=O)c1cc(O)n(-c2ccc(F)cc2)n1)c1ccccc1Cl [Example 528, (S)-3-(2-Chloro-phenyl)-3-{[1-(4-fluoro-phenyl)-5-hydroxy-1H-pyrazole-3-carbonyl]-amino}-propionic acid]
46 | 100 to 1000 nM | COc1ccc([C@H](CC(=O)O)NC(=O)c2cc(O)n(-c3ccc(F)cc3)n2)cc1 [Example 435]
47 | 100 to 1000 nM | COc1ccc(F)cc1C(CC(=O)O)NC(=O)c1cc(O)n(-c2ccccc2Cl)n1 (centres unmarked) [Example 504, 3-{[1-(2-Chloro-phenyl)-5-hydroxy-1H-pyrazole-3-carbonyl]-amino}-3-(5-fluoro-2-methoxy-phenyl)-propionic acid]
